From patent US20220281819A1, “THERAPEUTIC COMPOUNDS AND METHODS OF USE” (priority 2020, published 2022)

Key:
Type in all cases: binding
TEAD2 [1] = molecular target: T1, TEAD2 (Homo sapiens, UniProt Q15562); experiment: TEAD2 Lipid + 4 hr HTRF WUXI (TR-FRET lipid pocket probe competition, 4 h pre-incubation); conditions: 4 hours pre-incubation with compound at room temperature; Table 3
Description: (§1) His-tagged TEAD2 or 4 proteins are pre-incubated with TEAD project compounds for 4 hours at room temperature. Biotinylated lipid pocket probes are then added to the TEAD/Compound mixture and incubated for 60 minutes at room temperature. The lipid pocket probe competes with the test compound for the TEAD lipid pocket until equilibrium is reached. After 60 minutes, Europium labelled anti-His (Perkin Elmer #AD0110) and XL665 labelled streptavidin (CIS Bio 610SAXAC) are added to the TEAD/test compound/lipid pocket mixture and incubated for 30 minutes. TR-FRET values are then measured using an EnVision multi-label plate reader (Perkin Elmer Cat#2104-0010A.) If the lipid pocket probe binds to TEAD as expected, a TR-FRET signal results from the proximity of anti-His Eu and XL665. If a TEAD lipid pocket binder such as binds and displaces the lipid pocket probe, the disruption of the TEAD:probe interaction results in a decrease in TR-FRET signal. The potency of compounds as TEAD lipid pocket binders is determined by IC50 value generated using a non-linear 4 parameter curve fit.

TEAD1 = TEAD1 (Homo sapiens, UniProt P28347); experiment: Lipid HTRF (TR-FRET lipid pocket probe competition), 30 min pre-incubation, TEAD1; conditions: His-tagged TEAD1, 30 minutes pre-incubation with compound at room temperature; read-out: Lipid HTRF TEAD1 IC50
Description: as §1, with “TEAD” for “TEAD2 or 4”, “30 minutes” for “4 hours”, “TR-FRET values are then measured using an EnVision multi-label plate reader (Perkin Elmer Cat#2104-0010A.) If the lipid pocket probe binds to TEAD as expected, a TR-FRET signal results from the proximity of anti-His Eu and XL665.” left out

TEAD2 [2] = molecular target: T1, TEAD2; experiment: Lipid HTRF (TR-FRET lipid pocket probe competition), 30 min pre-incubation, TEAD2; conditions: His-tagged TEAD2, 30 minutes pre-incubation with compound at room temperature; read-out: Lipid HTRF TEAD2 IC50
Description: as §1, with “TEAD” for “TEAD2 or 4”, “30 minutes” for “4 hours”, “TR-FRET values are then measured using an EnVision multi-label plate reader (Perkin Elmer Cat#2104-0010A.) If the lipid pocket probe binds to TEAD as expected, a TR-FRET signal results from the proximity of anti-His Eu and XL665.” left out

TEAD3 = TEAD3 (Homo sapiens, UniProt Q99594); experiment: Lipid HTRF (TR-FRET lipid pocket probe competition), 30 min pre-incubation, TEAD3; conditions: His-tagged TEAD3, 30 minutes pre-incubation with compound at room temperature; read-out: Lipid HTRF TEAD3 IC50
Description: as §1, with “TEAD” for “TEAD2 or 4”, “30 minutes” for “4 hours”, “TR-FRET values are then measured using an EnVision multi-label plate reader (Perkin Elmer Cat#2104-0010A.) If the lipid pocket probe binds to TEAD as expected, a TR-FRET signal results from the proximity of anti-His Eu and XL665.” left out

TEAD4 = TEAD4 (Homo sapiens, UniProt Q15561); experiment: Lipid HTRF (TR-FRET lipid pocket probe competition), 30 min pre-incubation, TEAD4; conditions: His-tagged TEAD4, 30 minutes pre-incubation with compound at room temperature; read-out: Lipid HTRF TEAD4 IC50
Description: as §1, with “TEAD” for “TEAD2 or 4”, “30 minutes” for “4 hours”, “TR-FRET values are then measured using an EnVision multi-label plate reader (Perkin Elmer Cat#2104-0010A.) If the lipid pocket probe binds to TEAD as expected, a TR-FRET signal results from the proximity of anti-His Eu and XL665.” left out

Chain of TEAD1 (P28347 whole entry, species assumed): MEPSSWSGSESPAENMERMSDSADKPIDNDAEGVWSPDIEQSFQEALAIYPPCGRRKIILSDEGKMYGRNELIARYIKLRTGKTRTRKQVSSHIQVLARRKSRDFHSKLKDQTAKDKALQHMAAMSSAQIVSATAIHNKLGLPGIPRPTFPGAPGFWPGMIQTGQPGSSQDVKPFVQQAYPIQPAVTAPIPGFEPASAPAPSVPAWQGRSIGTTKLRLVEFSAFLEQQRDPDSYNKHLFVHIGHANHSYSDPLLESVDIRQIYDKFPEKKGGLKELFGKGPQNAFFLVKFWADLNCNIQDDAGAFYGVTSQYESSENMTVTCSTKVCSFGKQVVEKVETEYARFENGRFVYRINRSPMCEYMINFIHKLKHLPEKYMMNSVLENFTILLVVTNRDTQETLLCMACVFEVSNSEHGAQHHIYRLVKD
T1 sequence (Q15562 whole entry, species assumed): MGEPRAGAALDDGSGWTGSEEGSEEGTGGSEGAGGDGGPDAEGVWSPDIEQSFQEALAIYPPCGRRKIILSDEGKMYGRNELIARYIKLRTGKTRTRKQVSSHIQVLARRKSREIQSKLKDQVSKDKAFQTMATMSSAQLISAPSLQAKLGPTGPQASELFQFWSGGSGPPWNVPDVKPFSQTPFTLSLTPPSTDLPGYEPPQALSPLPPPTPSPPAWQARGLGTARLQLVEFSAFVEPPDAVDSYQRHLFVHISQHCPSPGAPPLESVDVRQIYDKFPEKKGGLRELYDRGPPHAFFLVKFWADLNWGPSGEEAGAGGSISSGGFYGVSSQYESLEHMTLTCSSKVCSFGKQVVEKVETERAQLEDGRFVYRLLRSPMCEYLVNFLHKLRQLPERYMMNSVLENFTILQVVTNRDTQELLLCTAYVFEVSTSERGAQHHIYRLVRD
Chain of TEAD4 (Q15561 whole entry, species assumed): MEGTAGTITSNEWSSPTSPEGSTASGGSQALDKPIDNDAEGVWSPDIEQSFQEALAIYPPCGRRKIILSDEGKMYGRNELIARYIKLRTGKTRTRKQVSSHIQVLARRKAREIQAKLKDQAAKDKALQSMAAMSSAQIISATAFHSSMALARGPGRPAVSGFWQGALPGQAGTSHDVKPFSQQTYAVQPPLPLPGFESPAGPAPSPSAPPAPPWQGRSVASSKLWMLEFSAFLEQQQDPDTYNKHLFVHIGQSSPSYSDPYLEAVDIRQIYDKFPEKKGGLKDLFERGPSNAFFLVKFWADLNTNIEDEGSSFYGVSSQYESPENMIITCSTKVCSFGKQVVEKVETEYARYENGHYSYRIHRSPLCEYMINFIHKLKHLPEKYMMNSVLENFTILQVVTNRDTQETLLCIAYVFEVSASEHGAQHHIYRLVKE
Chain of TEAD3 (Q99594 whole entry, species assumed): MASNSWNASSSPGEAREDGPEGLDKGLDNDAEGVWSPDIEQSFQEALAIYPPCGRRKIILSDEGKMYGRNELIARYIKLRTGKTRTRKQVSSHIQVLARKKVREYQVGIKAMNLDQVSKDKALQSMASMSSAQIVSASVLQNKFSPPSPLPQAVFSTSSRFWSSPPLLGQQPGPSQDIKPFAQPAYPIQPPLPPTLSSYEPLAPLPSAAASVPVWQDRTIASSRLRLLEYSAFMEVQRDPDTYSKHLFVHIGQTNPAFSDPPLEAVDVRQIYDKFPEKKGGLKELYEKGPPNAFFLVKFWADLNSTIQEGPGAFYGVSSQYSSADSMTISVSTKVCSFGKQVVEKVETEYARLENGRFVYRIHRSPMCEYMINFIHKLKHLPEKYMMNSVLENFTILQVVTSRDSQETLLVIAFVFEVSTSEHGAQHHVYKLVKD

Row | Compound | IC50 (TEAD2 [1]) [µM] | IC50 (TEAD1) [µM] | IC50 (TEAD2 [2]) [µM] | IC50 (TEAD3) [µM] | IC50 (TEAD4) [µM]
1 | C=CC(=O)Nc1cc(-c2ccc(OC(F)(F)F)cc2)c2ncsc2c1C#N [Final product from Example 55, N-(7-Cyano-4-(4-(trifluoromethoxy)phenyl)benzo[d]thiazol-6-yl)acrylamide] | 0.0189 |  |  |  | 
2 | C=CC(=O)Nc1cc(-c2ccc(OC(F)(F)F)cc2)c2c(c1CO)CCO2 [Final product from Example 53, N-(4-(Hydroxymethyl)-7-(4-(trifluoromethoxy)phenyl)-2,3-dihydrobenzofuran-5-yl)acrylamide] | 0.0034 |  |  |  | 
3 | C=CC(=O)Nc1cc(-c2ccc(S(F)(F)(F)(F)F)cc2)c2c(c1CO)CCO2 [Final product from Example 54, N-[4-(Hydroxymethyl)-7-[4-(pentafluoro-6-sulfanyl)phenyl]-2,3-dihydrobenzofuran-5-yl]prop-2-enamide] | 0.0086 |  |  |  | 
4 | C=CC(=O)Nc1cnc(OC)c(/C=C/C2CCC(C(F)(F)F)OC2)c1 (single isomer, unassigned) [Enantiomer B from Example 42, N-(6-methoxy-5-((E)-2-(6-(trifluoromethyl)tetrahydro-2H-pyran-3-yl)vinyl)pyridin-3-yl)acrylamide] |  | 2.1 | 1.1 | 7.5 | 2.7
5 | CC(C)c1ccc(-c2cc(NC(=O)C3(C)CO3)c(C#N)c3c2OCC3)cc1 (single isomer, unassigned) [Enantiomer A from Example 43, N-(4-Cyano-7-(4-isopropylphenyl)-2,3-dihydrobenzofuran-5-yl)-2-methyloxirane-2-carboxamide] |  | 36 | > 50 | > 50 | 6.6
6 | C=CC(=O)Nc1cnc(OC)c(/C=C/[C@H]2CC[C@H](C(F)(F)F)CC2)c1 [Final product from Example 2, N-(6-methoxy-5-((E)-2-(trans-4-(trifluoromethyl)cyclohexyl)vinyl)pyridin-3-yl)acrylamide] |  | 0.26 | 0.13 | 1.13 | 0.28
7 | C=CC(=O)Nc1cc(/C=C/c2ccc(Cl)cc2)c2c(c1)CCO2 [Final product from Example 17, (E)-N-(7-(4-chlorostyryl)-2,3-dihydrobenzofuran-5-yl)acrylamide] |  | 0.71 | 1.3 | 5.3 | 0.47
8 | CC(C)c1ccc(-c2cc(N(C)C(=O)NC#N)c(C#N)c3c2OCC3)cc1 [Final product from Example 47, 3-cyano-1-[4-cyano-7-(4-isopropylphenyl)-2,3-dihydrobenzofuran-5-yl]-1-methyl-urea] |  | 2.9 | 2.7 | 30 | 0.84
9 | COc1ncc(NC(=O)/C=C/C#N)cc1/C=C/C1CCC(F)(F)CC1 [Final product from Example 21, (E)-3-cyano-N-(5-((E)-2-(4,4-difluorocyclohexyl)vinyl)-6-methoxypyridin-3-yl)acrylamide] |  | 0.08 | 0.36 | 0.16 | 0.06
10 | C=CC(=O)Nc1cnc2cccc(O[C@H]3CC[C@H](C(F)(F)F)CC3)c2c1 [Final product from Example 38, N-(5-((trans-4-(Trifluoromethyl)cyclohexyl)oxy)quinolin-3-yl)acrylamide] |  | 0.09 | 0.07 | 0.09 | 0.1
11 | CC(C)c1ccc(-c2cc(NC(=O)[C@H]3CO3)c(C#N)c3c2OCC3)cc1 [Final product from Example 45, (R)-N-(4-cyano-7-(4-isopropylphenyl)-2,3-dihydrobenzofuran-5-yl)oxirane-2-carboxamide] |  | 2.9 | 2.8 | 36 | 0.64
